Like-named read-outs stand apart in the source and are kept apart here.
Test system: RSV A2 strain
Experiment: In vitro CPE (CytoPathic Effect) inhibition effect evaluation test, RSV type A
Assay type: cell-based
Summary of the method: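 HEp-2 cells (2.4×10^5 cells/mL, 2% FBS E-MEM) were infected with RSV alongside 3-fold compound dilutions and incubated at 37 °C, 4 days for A2 and 5 days for B Wash/18537. Viable cells quantified by CellTiter-Glo 2.0 luminescence; EC50 by nonlinear regression as 50% CPE inhibition.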

[1] = human respiratory syncytial virus, inhibitory effect against RSV type A (RSV A2 strain), HEp-2 cells, CPE inhibition, read-out: EC50
[2] = inhibitory effect against RSV type A (RSV A2 strain), HEp-2 cells, CPE inhibition, read-out: EC50

Row | SMILES | EC50 [1] | EC50 [2] | other results
1 | O=C(NC1(C(=O)O)C2CC3CC(C2)CC1C3)c1cnc(N2CC3(CCCC3)c3cc(OC4CCN(c5ncccn5)CC4)ccc32)nc1C(F)(F)F (stereo not shown) [Compound I-244] | < 10 nM | – | –
2 | O=C(NC1(C(=O)O)C2CC3CC(C2)CC1C3)c1cnc(-c2cn(C3CCC(F)(F)CC3)c3cc(O[C@@H]4CCN(C5COC5)C4)ccc23)nc1C(F)(F)F (stereo partly shown) [Compound I-246] | < 10 nM | – | –
3 | CC(=O)N1CCC(Oc2ccc3c(-c4ncc(C(=O)NC5(C(=O)O)C6CC7CC(C6)CC5C7)c(C(F)(F)F)n4)cn(C4CCC(F)(F)CC4)c3c2)CC1 (stereo not shown) [Compound I-247] | < 10 nM | – | –
4 | O=C(NC1(C(=O)O)C2CC3CC(C2)CC1C3)c1cnc(-c2cn(C3CCC(F)(F)CC3)c3cc(O[C@H]4CCN(C5COC5)C4)ccc23)nc1C(F)(F)F (stereo partly shown) [Compound I-248] | < 10 nM | – | –
5 | O=C(NC1(C(=O)O)C2CC3CC(C2)CC1C3)c1ccc(-c2cn(C3CS(=O)(=O)C3)c3cc(OC4CCN(c5ncccn5)CC4)ccc23)nc1C(F)(F)F (stereo not shown) [Compound I-251] | < 10 nM | – | –
6 | O=C(NC1(C(=O)O)C2CC3CC(C2)CC1C3)c1ccc(-c2cn(CC(F)(F)F)c3cc(OC4CCN(c5ncccn5)CC4)ccc23)nc1C(F)(F)F (stereo not shown) [Compound I-252] | < 10 nM | – | –
7 | COCCN1CCC(Oc2ccc3c(-c4ncc(C(=O)NC5(C(=O)O)C6CC7CC(C6)CC5C7)c(C(F)(F)F)n4)cn(C4CCC(F)(F)CC4)c3c2)CC1 (stereo not shown) [Compound I-253] | < 10 nM | – | –
8 | CS(=O)(=O)CCN1CCC(Oc2ccc3c(-c4ncc(C(=O)NC5(C(=O)O)C6CC7CC(C6)CC5C7)c(C(F)(F)F)n4)cn(C4CCC(F)(F)CC4)c3c2)CC1 (stereo not shown) [Compound I-254] | 10 to 100 nM | – | –
9 | COC(=O)N1CCC(Oc2ccc3c(-c4ncc(C(=O)NC5(C(=O)O)C6CC7CC(C6)CC5C7)c(C(F)(F)F)n4)cn(C4CCC(F)(F)CC4)c3c2)CC1 (stereo not shown) [Compound I-255] | < 10 nM | – | –
10 | O=C(NC1(C(=O)O)C2CC3CC(C2)CC1C3)c1cnc(-c2cn(C3CCC(F)(F)CC3)c3cc(OC4CCN(C(=O)C5CC5)CC4)ccc23)nc1C(F)(F)F (stereo not shown) [Compound I-258] | < 10 nM | – | –
11 | O=C(NC1(C(=O)O)C2CC3CC(C2)CC1C3)c1cnc(-c2cn(C3CCC(F)(F)CC3)c3cc(OC4CCN(S(=O)(=O)C5CC5)CC4)ccc23)nc1C(F)(F)F (stereo not shown) [Compound I-259] | < 10 nM | – | –
12 | O=C(NC1(C(=O)O)C2CC3CC(C2)CC1C3)c1cnc(-c2cn(C3CCC(F)(F)CC3)c3cc(OC4CCN(C(=O)c5ncccn5)CC4)ccc23)nc1C(F)(F)F (stereo not shown) [Compound I-260] | 10 to 100 nM | – | –
13 | O=C(NC1(C(=O)O)C2CC3CC(C2)CC1C3)c1ccc(-c2cn(CC3CC(F)(F)C3)c3cc(OC4CCN(c5ncccn5)CC4)ccc23)nc1C(F)(F)F (stereo not shown) [Compound I-264] | < 10 nM | – | –
14 | O=C(NC1(C(=O)O)C2CC3CC(C2)CC1C3)c1ccc(-c2cn(CC3COC3)c3cc(OC4CCN(c5ncccn5)CC4)ccc23)nc1C(F)(F)F (stereo not shown) [Compound I-265] | < 10 nM | – | –
15 | Cn1c(C2CCOCC2)c(-c2ccc(C(=O)NC3(C(=O)O)C4CC5CC(C4)CC3C5)c(C(F)(F)F)n2)c2ccc(OC3CCN(c4ncccn4)CC3)cc21 (stereo not shown) [Compound I-270] | – | – | EC50 (human respiratory syncytial virus, HEp-2, 96 h, read-out: EC50, inhibitory effect against RSV type A (CPE inhibition)): 37 nM
16 | CC1CN(c2ncccn2)CCC1Oc1ccc2c(-c3ncc(C(=O)NC4(C(=O)O)C5CC6CC(C5)CC4C6)c(C(F)(F)F)n3)cn(C3CCC(F)(F)CC3)c2c1 (stereo not shown) [Compound I-273] | < 10 nM | – | –
17 | O=C(NC1(C(=O)O)C2CC3CC(C2)CC1C3)c1cnc(N2CC3(CCOCC3)c3cc(OC4CCN(c5ncc(C(F)(F)F)cn5)CC4)ccc32)nc1C(F)(F)F (stereo not shown) [Compound I-274] | < 10 nM | – | –
18 | O=C(NC1(C(=O)O)C2CC3CC(C2)CC1C3)c1cnc(-c2cn(C3CCC(F)(F)CC3)c3cc(OCc4ccc5c(c4)OCC5)ccc23)nc1C(F)(F)F (stereo not shown) [Compound I-278] | < 10 nM | – | –
19 | O=C(NC1(C(=O)O)C2CC3CC(C2)CC1C3)c1cnc(N2CC3(CCOCC3)c3cc(-c4ccccc4)ccc32)nc1C(F)(F)F (stereo not shown) [Compound I-279] | < 10 nM | – | –
20 | O=C(NC1(C(=O)O)C2CC3CC(C2)CC1C3)c1cnc(N2CC3(CCOCC3)c3cc(Nc4ccccn4)ccc32)nc1C(F)(F)F (stereo not shown) [Compound I-280] | < 10 nM | – | –
21 | CC1(C)CCC(n2cc(-c3ccc(C(=O)NC4(C(=O)O)C5CC6CC(C5)CC4C6)c(C(F)(F)F)n3)c3ccc(OC4CCN(c5ncccn5)CC4)cc32)CC1 (stereo not shown) [Compound I-281] | < 10 nM | – | –
22 | Cc1c(OC2CCN(c3ncccn3)CC2)ccc2c(-c3ncc(C(=O)NC4(C(=O)O)C5CC6CC(C5)CC4C6)c(C(F)(F)F)n3)cn(C3CCC(F)(F)CC3)c12 (stereo not shown) [Compound I-282] | < 10 nM | – | –
23 | O=C(NC1(C(=O)O)C2CC3CC(C2)CC1C3)c1cnc(N2CC3(CCOCC3)c3cc(F)ccc32)nc1C(F)(F)F (stereo not shown) [Compound I-284] | < 10 nM | – | –
24 | O=C(NC1(C(=O)O)C2CC3CC(C2)CC1C3)c1ccc(-c2cn([C@H]3CC[C@@H](C(F)(F)F)CC3)c3cc(OC4CCN(c5ncccn5)CC4)ccc23)nc1C(F)(F)F (stereo partly shown) [Compound I-285] | < 10 nM | – | –
25 | O=C(NC1(C(=O)O)C2CC3CC(C2)CC1C3)c1ccc(-c2cn([C@H]3CC[C@H](C(F)(F)F)CC3)c3cc(OC4CCN(c5ncccn5)CC4)ccc23)nc1C(F)(F)F (stereo partly shown) [Compound I-286] | 10 to 100 nM | – | –

Row | SMILES | EC50 [1] | EC50 [2] | other results
26 | O=C(NC1(C(=O)O)C2CC3CC(C2)CC1C3)c1cnc(N2CC3(CCOCC3)c3c2cc(F)c(F)c3F)nc1C(F)(F)F (stereo not shown) [Compound I-287] | < 10 nM | – | –
27 | O=C(NC1(C(=O)O)C2CC3CC(C2)CC1C3)c1ccc(-c2cn(C3CCCC3)c3cc(OC4CCN(c5ncccn5)CC4)ccc23)nc1C(F)(F)F (stereo not shown) [Compound I-289] | < 10 nM | – | –
28 | O=C(NC1(C(=O)O)C2CC3CC(C2)CC1C3)c1ccc(-c2cn(-c3ccc(F)cn3)c3cc(OC4CCN(c5ncccn5)CC4)ccc23)nc1C(F)(F)F (stereo not shown) [Compound I-290] | < 10 nM | – | –
29 | O=C(NC1(C(=O)O)C2CC3CC(C2)CC1C3)c1cnc(N2CC3(CCOCC3)c3cc(Cc4ccccc4)ccc32)nc1C(F)(F)F (stereo not shown) [Compound I-293] | – | 10 to 100 nM | –
30 | CC(F)(F)c1nc(N2CC3(CCOCC3)c3cc(OC4CCN(c5ncccn5)CC4)ccc32)ncc1C(=O)NC1(C(=O)O)C2CC3CC(C2)CC1C3 (stereo not shown) [Compound I-294] | – | < 10 nM | –
31 | COc1cccc(-n2cc(-c3ccc(C(=O)NC4(C(=O)O)C5CC6CC(C5)CC4C6)c(C(F)(F)F)n3)c3ccc(OC4CCN(c5ncccn5)CC4)cc32)n1 (stereo not shown) [Compound I-296] | – | < 10 nM | –
32 | O=C(NC1(C(=O)O)C2CC3CC(C2)CC1C3)c1cnc(N2CC3(CCOCC3)c3cc4c(cc32)OC(F)(F)O4)nc1C(F)(F)F (stereo not shown) [Compound I-299] | – | 10 to 100 nM | –
33 | CC(C)(C)C[C@@H](NC(=O)c1cnc(-c2cn(C3CCC(F)(F)CC3)c3cc(OC4CCN(c5ncccn5)CC4)ccc23)nc1C(F)(F)F)C(=O)O [Compound I-302] | < 10 nM | – | –
34 | O=C(NC1(C(=O)O)C2CC3CC(C2)CC1C3)c1ccc(-c2cn(-c3ccc(C(F)(F)F)cn3)c3cc(OC4CCN(c5ncccn5)CC4)ccc23)nc1C(F)(F)F (stereo not shown) [Compound I-303] | – | < 10 nM | –
35 | O=C(NC1(C(=O)O)C2CC3CC(C2)CC1C3)c1cnc(N2CC3(CCOCC3)c3cc(C(F)(F)F)ccc32)nc1C(F)(F)F (stereo not shown) [Compound I-307] | – | < 10 nM | –
36 | O=C(NC1(C(=O)O)C2CC3CC(C2)CC1C3)c1ccc(-c2cn(-c3ncccc3F)c3cc(OC4CCN(c5ncccn5)CC4)ccc23)nc1C(F)(F)F (stereo not shown) [Compound I-310] | – | < 10 nM | –
37 | Cc1cccnc1-n1cc(-c2ccc(C(=O)NC3(C(=O)O)C4CC5CC(C4)CC3C5)c(C(F)(F)F)n2)c2ccc(OC3CCN(c4ncccn4)CC3)cc21 (stereo not shown) [Compound I-311] | – | < 10 nM | –
38 | O=C(NC1(C(=O)O)C2CC3CC(C2)CC1C3)c1ccc(-c2cn(-c3ccncc3F)c3cc(OC4CCN(c5ncccn5)CC4)ccc23)nc1C(F)(F)F (stereo not shown) [Compound I-312] | – | < 10 nM | –
39 | O=C(NC1(C(=O)O)C2CC3CC(C2)CC1C3)c1ccc(-c2cn(-c3ccccc3F)c3cc(OC4CCN(c5ncccn5)CC4)ccc23)nc1C(F)(F)F (stereo not shown) [Compound I-313] | – | < 10 nM | –
40 | Cc1ccccc1-n1cc(-c2ccc(C(=O)NC3(C(=O)O)C4CC5CC(C4)CC3C5)c(C(F)(F)F)n2)c2ccc(OC3CCN(c4ncccn4)CC3)cc21 (stereo not shown) [Compound I-314] | – | < 10 nM | –
41 | O=C(NC1(C(=O)O)C2CC3CC(C2)CC1C3)c1ccc(-c2cn(-c3ncccc3C(F)(F)F)c3cc(OC4CCN(c5ncccn5)CC4)ccc23)nc1C(F)(F)F (stereo not shown) [Compound I-316] | – | < 10 nM | –
42 | Cc1cnccc1-n1cc(-c2ccc(C(=O)NC3(C(=O)O)C4CC5CC(C4)CC3C5)c(C(F)(F)F)n2)c2ccc(OC3CCN(c4ncccn4)CC3)cc21 (stereo not shown) [Compound I-317] | – | < 10 nM | –
43 | COc1ccccc1-n1cc(-c2ccc(C(=O)NC3(C(=O)O)C4CC5CC(C4)CC3C5)c(C(F)(F)F)n2)c2ccc(OC3CCN(c4ncccn4)CC3)cc21 (stereo not shown) [Compound I-318] | – | < 10 nM | –
44 | O=C(Nc1ccc2c(c1)C1(CCOCC1)CN2c1ncc(C(=O)NC2(C(=O)O)C3CC4CC(C3)CC2C4)c(C(F)(F)F)n1)c1ccccc1 (stereo not shown) [Compound I-323] | – | < 10 nM | –
45 | COc1cccnc1-n1cc(-c2ccc(C(=O)NC3(C(=O)O)C4CC5CC(C4)CC3C5)c(C(F)(F)F)n2)c2ccc(OC3CCN(c4ncccn4)CC3)cc21 (stereo not shown) [Compound I-325] | – | < 10 nM | –
46 | O=C(NC1(C(=O)O)C2CC3CC(C2)CC1C3)c1ccc(-c2cn(-c3ccccc3C(F)(F)F)c3cc(OC4CCN(c5ncccn5)CC4)ccc23)nc1C(F)(F)F (stereo not shown) [Compound I-327] | – | < 10 nM | –
47 | Cn1cc(-n2cc(-c3ccc(C(=O)NC4(C(=O)O)C5CC6CC(C5)CC4C6)c(C(F)(F)F)n3)c3ccc(OC4CCN(c5ncccn5)CC4)cc32)cn1 (stereo not shown) [Compound I-328] | – | < 10 nM | –
48 | O=C(NC1(C(=O)O)C2CC3CC(C2)CC1C3)c1ccc(-c2cn(-c3ccncc3C(F)(F)F)c3cc(OC4CCN(c5ncccn5)CC4)ccc23)nc1C(F)(F)F (stereo not shown) [Compound I-329] | – | < 10 nM | –
49 | O=C(NC1(C(=O)O)C2CC3CC(C2)CC1C3)c1cnc(N2CC3(CCOCC3)c3cc(OC4CCN(c5ncccn5)CC4)cc(F)c32)nc1C(F)(F)F (stereo not shown) [Compound I-332] | – | < 10 nM | –
